Measured values: patent publication US5516797A, “Immunosuppressive compounds” (Vertex Pharmaceuticals, Incorporated, priority 1994, dated 1996)

Experiments:
[1] = biological target: T1, FK-506 binding protein (FKBP) (Homo sapiens, UniProt P62942); test: Competitive binding to FKBP against [3H]dihydro-FK-506 (apparent Kd); conditions: competition with [3H]dihydro-FK-506
[2] = system: human peripheral blood lymphocytes; test: Mitogenesis assay PMA: inhibition of proliferation of human PBLs; assay type: cell-based; conditions: Lymphocyte, PMA (10 ng/ml) plus ionomycin (250 ng/ml), 48 h incubation
Procedure: (§1) PMA and OKT3mitogens used to stimulate proliferation of human peripheral
(§2) blood lymphocytes (PBC). Compounds are evaluated on their ability to
(§3) Fresh peripheral blood lymphocytes (PBLs) from LeukoPak cells or whole blood from random normal blood donors (tested HIV-negative and hepatitis negative) are isolated and separated by density centrifugation over Histopaque 1077 (Sigma Chemical Co., St. Louis, Mo.). The murine CTLL cytotoxic T cell line and the human Jurkat T cell line are from ATCC (CTLL-2 ATCC TIB214, JURKAT CLONE E6-1 ATCC TIBl52). The human allogeneic B cell lines used for activation of the fresh PBLs are EBV-transformed lymphocytes from normal healthy adult donors with two completely different HLAhaplotypes. All cell lines were routinely tested for the presence of Mycolasma contamination using the GibcoMycotect test kit and are Mycolasma-free. Culture medium consksts of RPMI 1640 (Gibco, Grand Island, N.Y.) containing penicillin (50 U/ml) and streptomycin (50 μg/ml), L-glutamine 2 mM, 2 mercaptoethanol (5×10^-5), 10% heat-inactivated FCS and 10 mM HEPES.
(§4) All chemical stocks were dissolved in DMSO.
(§5) Mitogenesis Assays ("PMA" and "OKT3")
(§6) After 48 h incubation (37° C., 5% CO2), cells were pulsed with 1 μCi of ^3 H-thymidine, harvested 24 h later with a Tom Tek cell harvester, and counted in LKB β-scintillation counter.

[3] = system: human peripheral blood lymphocytes; test: Mitogenesis assay OKT3: inhibition of proliferation of human PBLs; assay type: cell-based; conditions: Lymphocyte, OKT3 (10^-4 dilution final), 48 h incubation
Procedure: as §1, §2, §3, §4, §5, §6

[4] = system: PBLs stimulated with LB human viral transformed B lymphoblastoid cells; test: MLR bioassay LB: inhibition of proliferation in mixed lymphocyte reaction; assay type: cell-based; conditions: Lymphoblastoid cell, pulsed on day 6, harvested 24 h later
Procedure: (§7) LB and JVMhuman viraltransformed B lymphoblastoid cell lines stimulated t
(§8) proliferate in a mixed lymphocyte reaction (MLR). The compounds are
(§9) evaluated on their ability to inhibit this proliferation.
as §3, §4
(§10) MLR Bioassays ("LB" and "JVM")
(§11) Antigen activated proliferation of PBLs in a primary mixed lymphocyte reaction was assessed in the presence or absence of different concentrations of tested compounds and control drugs. 5×10^4 fresh PBLs were stimulated with 5×10^3 of Mitomycin C treated-allogeneic EBV-transformed β-lymphoglastoid cells, IB and JVM, in a final volume of 200 μl per well in 96-well round-bottomed plates (Mishell, B. B. and S. M. Shiigi, Selected Methods in Cellular Immunology W. H. Freeman and Co., San Francisco, Calif. (1980); Nelson, P. A. et al., Transplantation 50:286 (1990)). Cultures were pulsed on day 6, harvested 24 h later and counted as in previous section.

[5] = system: PBLs stimulated with JVM human viral transformed B lymphoblastoid cells; test: MLR bioassay JVM: inhibition of proliferation in mixed lymphocyte reaction; assay type: cell-based; conditions: Lymphoblastoid cell, pulsed on day 6, harvested 24 h later
Procedure: as §7, §8, §9, §3, §4, §10, §11

[6] = biological target: T1, FK-506 binding protein (FKBP); test: Inhibition of PPIase (rotamase) enzyme activity of FKBP (apparent Ki); assay type: biochemical; conditions: substrate N-succinylAla-Ala-Pro-Phe-p-nitroanilide, chymotrypsin-coupled
Excerpt: The inhibition of the PPIase (rotamase) enzyme activity of the FKBP (apparent "Ki" values) can also be measured according to the methods described by either Harding, M. W. et al., Nature 341:758-760 (1989) or Siekierka, J. J. et al., Nature 341:755-757 (1989). The cis-trans isomerization of the proline-alanine peptide bond in a model substrate, N-succinylAla-Ala-Pro-Phe-p-nitroanilide, is monitored spectrophotometrically in a coupled assay with chymotrypsin, which releases 4-nitroanilide from the trans form of the substrate. Fischer, G. et al., Nature 337:476-478 (1989). The inhibitory effect of the addition of different concentrations of inhibitor on the extent of the reaction is determined, and analysis of the change in first order rate constant as a function of inhibitor concentration yields an estimate of the apparent Ki value.

T1 sequence (P62942 whole entry): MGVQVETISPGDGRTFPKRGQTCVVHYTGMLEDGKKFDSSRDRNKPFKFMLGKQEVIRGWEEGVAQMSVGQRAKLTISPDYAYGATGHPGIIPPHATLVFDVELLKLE

Kd [1] [µM]	Ki [6] [µM]	Structure (SMILES)	IC50 [2] [µM]	IC50 [3] [µM]	IC50 [4] [µM]	IC50 [5] [µM]
> 2	–	O=C(C(=O)N1CCCC[C@H]1C(=O)OCc1ccccc1)c1ccccc1 [Compound 3, (S)-Benzyl N-(phenylglyoxyl)pipecolate]	7.6	4.6	> 10	> 10
> 1.3	0.3	COc1cccc(C(=O)C(=O)N2CCCC[C@H]2C(=O)OCc2ccccc2)c1 [Compound 9]	> 10	6.5	> 10	> 10
2	0.1	COc1cc(C(=O)C(=O)N2CCCC[C@H]2C(=O)OCc2ccccc2)cc(OC)c1OC [Compound 13]	> 10	5.9	> 10	> 10
100	160	O=C(C(=O)N1CCCC[C@H]1C(=O)OCc1ccccc1)c1ccc([N+](=O)[O-])cc1 [Compound 16]	> 10	> 10	> 10	> 10
4	0.8	O=C(C(=O)N1CCCC[C@H]1C(=O)OCc1ccccc1)c1cccs1 [Compound 22]	> 10	> 10	> 10	> 10
3	1.3	O=C(C(=O)N1CCCC[C@H]1C(=O)OCc1ccccc1)C1CCCCC1 [Compound 40]	7	1	> 10	> 10
2	1	O=C(OCc1ccccc1)[C@@H]1CCCCN1C(=O)C(=O)C1(O)CCCCC1 [Compound 46]	> 10	> 10	> 10	> 10
0.3	1.5	O=C(C(=O)N1CCCC[C@H]1C(=O)OCc1ccccc1)c1ccc2ccccc2c1 [Compound 47]	> 10	> 10	> 10	> 10
2	1	O=C(C(=O)N1CCCC[C@H]1C(=O)OCc1ccccc1)c1cccc2ccccc12 [Compound 48]	> 10	> 10	> 10	> 10
0.6	0.5	C[C@H](OC(=O)[C@@H]1CCCCN1C(=O)C(=O)c1ccccc1)c1ccccc1 [Compound 49]	> 10	6.2	> 10	> 10
1.3	1.5	O=C(C(=O)N1CCCC[C@H]1C(=O)OCc1ccccc1)c1cccc(C(F)(F)F)c1 [Compound 52]	> 10	> 10	> 10	> 10
0.2	0.5	O=C(C(=O)N1CCCC[C@H]1C(=O)OCc1ccccc1)c1cccc(OCc2ccccc2)c1 [Compound 53]	> 10	8	> 10	> 10
0.15	0.09	O=C(C(=O)N1CCCC[C@H]1C(=O)OCc1cccc(Oc2ccccc2)c1)c1ccccc1 [Compound 62]	6.5	> 10	> 10	> 10
0.1	–	COc1cc(C(=O)C(=O)N2CCCC[C@H]2C(=O)OCCCCc2ccccc2)cc(OC)c1OC [Compound 63]	6	3.1	10	8.5
0.05	0.1	COc1cc(C(=O)C(=O)N2CCCC[C@H]2C(=O)OCCCCCCc2ccccc2)cc(OC)c1OC [Compound 71]	5	5.5	7.5	8
0.5	0.05	COc1cc(C(=O)C(=O)N2CCCC[C@H]2C(=O)OCCCCCCC2CCCCC2)cc(OC)c1OC [Compound 72]	9	> 10	> 10	> 10
0.08	0.09	COc1cc(C(=O)C(=O)N2CCCC[C@H]2C(=O)OCCCCCC2CCCCC2)cc(OC)c1OC [Compound 74]	8	9	10	10
0.06	0.016	COc1cc(C(=O)C(=O)N2CCCC[C@H]2C(=O)OCCCCc2ccc(I)cc2)cc(OC)c1OC [Compound 77]	4.5	8	6	7

Kd [1] [µM]	Ki [6] [µM]	Structure (SMILES)	IC50 [2] [µM]	IC50 [3] [µM]	IC50 [4] [µM]	IC50 [5] [µM]
0.25	0.8	O=C(C(=O)N1CCCC[C@H]1C(=O)OCCCCc1ccccc1)c1ccc(I)cc1 [Compound 81]	7	> 10	> 10	> 10
0.2	0.13	O=C(C(=O)N1CCCC[C@H]1C(=O)OCCCCc1ccccc1)c1cccc(I)c1 [Compound 82]	10	> 10	> 10	> 10
0.049	–	COc1ccc(CCCCOC(=O)[C@@H]2CCCCN2C(=O)C(=O)c2cc(OC)c(OC)c(OC)c2)cc1 [Compound 85]	4.5	4.5	7	10
> 15	3	O=C(OCc1ccccc1)[C@@H]1CCCN1C(=O)/C=C/c1ccc2c(c1)OCO2 [Compound 109, (S)-3-(3,4-Methylenedioxyphenyl)-prop-2-enoylproline benzyl ester]	–	–	–	–
> 4	3	O=C(OCc1ccccc1)[C@@H]1CCCCN1C(=O)/C=C/c1ccc2c(c1)OCO2 [Compound 110]	–	–	–	–
> 30	6	COc1ccc(/C=C/C(=O)N2CCC[C@H]2C(=O)OCc2ccccc2)cc1 [Compound 111]	–	–	–	–
> 8	4	COc1ccc(/C=C/C(=O)N2CCCC[C@H]2C(=O)OCc2ccccc2)cc1 [Compound 112, (S)-Benzyl N-(4-Methoxycinnamoyl)pipecolate]	–	–	–	–
> 25	450	COc1cc(/C=C/C(=O)N2CCC[C@H]2C(=O)OCc2ccccc2)cc(OC)c1OC [Compound 115]	–	–	–	–
> 5	20	CN(C)c1ccc(/C=C/C(=O)N2CCCC[C@H]2C(=O)OCc2ccccc2)cc1 [Compound 116]	–	–	–	–
> 5	14	O=C(OCc1ccccc1)[C@@H]1CCCCN1C(=O)/C=C/c1ccc([N+](=O)[O-])cc1 [Compound 117]	–	–	–	–
> 8	> 60	O=C(OCc1ccccc1)[C@@H]1CCCCN1C(=O)/C=C/c1c[nH]c2ccccc12 [Compound 120]	–	–	–	–
> 200	1000	COC(=O)C(=O)N(C)CC(=O)OCc1ccccc1 [Compound 124]	–	–	–	–
> 200	400	COC(=O)C(=O)N(C)[C@@H](C)C(=O)OCc1ccccc1 [Compound 125]	–	–	–	–
> 200	170	COC(=O)C(=O)N(C)[C@H](C(=O)OCc1ccccc1)C(C)C [Compound 126]	–	–	–	–
> 500	> 400	CCN(C(=O)C(=O)OC)[C@@H](C)C(=O)OC(C)(C)C [Compound 128]	–	–	–	–
> 150	80	COc1ccc(/C=C/C(=O)N(C)[C@@H](C)C(=O)OCc2ccccc2)cc1 [Compound 129, (S)-N-3-(4-methoxyphenyl)-prop-2-enoyl-N-methylalanine benzyl ester]	–	–	–	–
> 20	30	COc1ccc(/C=C/C(=O)N(C)[C@H](C(=O)OCc2ccccc2)C(C)C)cc1 [Compound 130]	–	–	–	–
